#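 Following 48 hours of exposure in 96-well plates, responses at five concentrations were used to interpolate endpoints linearly. The concentration for 50% growth inhibition is given as GI50.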 Calls of active or inactive are those of the source. Rule as the data show it: active = GI50 up to about 1.1 µM and inactive = higher. Starred links: 1 amine or outer side, 2 acyl side, 3 side chain; linkers in the order of their positions; H or OH if unused. Non-standard residues stand in square brackets, D forms with d. Residues, ends and D or L forms follow the SMILES beside them. *: point of attachment. X47 = CCC(=O)CC1CC(C)CC(C(=O)[*:2])N1[*:1]; X46 = CCCCCCCCC(C)C(=O)*; Aib = CC(C)(N)C(=O)O; X48 = CC(CN(C)CCO)N*
# Assays:
# Assay in all cases: NCI-60 cell line screen, 48 h
# DMS-273 = system: DMS-273
# XF498 = system: XF498
# DMS-114 = system: DMS-114
# RXF 631 = system: RXF 631
# DLD-1 = system: DLD-1
# M19-MEL = system: M19-MEL
# KM-20L2 = system: KM-20L2
# HOP-18 = system: HOP-18
# Hs-578T = system: Hs-578T
SMILES,GI50 (DMS-273),GI50 (DLD-1),GI50 (M19-MEL),GI50 (KM-20L2),GI50 (Hs-578T),also measured
O=[N+]([O-])c1ccc(C(Cl)C(Cl)c2ccc(C(Cl)C(Cl)c3ccc([N+](=O)[O-])cc3[N+](=O)[O-])cc2)c([N+](=O)[O-])c1 (configuration not stated),1.47 µM (inactive),1.78 µM (inactive),1.33 µM (inactive),0.0638 µM (active),,GI50 (XF498): 0.184 µM (active); GI50 (DMS-114): 1.42 µM (inactive); GI50 (RXF 631): 1.57 µM (inactive)
Cc1ccc(Oc2ccc(C(=O)c3cccc(C(=O)c4ccc(Oc5ccc(C)cc5)cc4)n3)cc2)cc1,> 100 µM (inactive),> 100 µM (inactive),,> 100 µM (inactive),,GI50 (DMS-114): > 100 µM (inactive); GI50 (HOP-18): > 100 µM (inactive)
CC(C)(C)OC(=O)CC(NC(=O)OC(C)(C)C)C(=O)NC(C(=O)O)C(O)c1ccccc1 (configuration not stated),,,,,70.8 µM (inactive),
COc1cc(C(=C2SCCS2)c2nccc3cc(OC)c(OC)cc23)c([N+](=O)[O-])cc1OC,34.4 µM (inactive),> 100 µM (inactive),72.9 µM (inactive),51.1 µM (inactive),,GI50 (XF498): 17.9 µM (inactive); GI50 (DMS-114): 41.6 µM (inactive); GI50 (HOP-18): > 100 µM (inactive)
Cc1ccc2c(c1)C(=O)C1(C2)Cc2ccc(C)cc2C1=O,,,,,> 100 µM (inactive),
COc1cc2c(c(OC)c1OC)-c1ccc(SC)c(=O)cc1C(CC(=O)Oc1ccccc1F)C2 (configuration not stated),0.00991 µM (active),0.0196 µM (active),0.0218 µM (active),0.0127 µM (active),,GI50 (DMS-114): 0.0152 µM (active)
N#CC(C(=O)O)C(c1c(Cl)cccc1Cl)C(C#N)C(=O)O (configuration not stated),,,,,> 100 µM (inactive),
CCCCCCCCCCCCCCCCCc1nc(Cl)nc(Cl)c1Cl,,,,,> 100 µM (inactive),
O=S(=O)(N/N=C1\CC2CCC1C2)c1ccccc1 (configuration not stated),,,,,> 100 µM (inactive),
C[n+]1c2ccccc2c(NCC(=O)O)c2ccccc21,> 100 µM (inactive),> 100 µM (inactive),> 100 µM (inactive),> 100 µM (inactive),,GI50 (DMS-114): > 100 µM (inactive); GI50 (HOP-18): > 100 µM (inactive)
O=C1/C(=C\c2cccc(Oc3ccccc3)c2)SC(c2ccccc2)N1c1cc(Cl)ccc1Cl (configuration not stated),,,,,24.4 µM (inactive),
CC1(C)NC(C)(C)/C(=N\O)C(=NO)/C1=N/O,,,,,> 100 µM (inactive),
Cc1nnc2nc(-c3ccc(Cl)cc3Cl)cc(-c3ccc(Cl)cc3)n12,,,,,> 100 µM (inactive),
CCCNC(=O)NNC(=O)c1c[nH]c2nc(C)ccc2c1=O,,,,,> 100 µM (inactive),
N#CC[C@@H](O)COc1ccccc1,,,,,> 100 µM (inactive),
COC(=O)/C=C/c1ccc2c(c1)CC1(Cc3ccccc3C1)C2,,,,,23.6 µM (inactive),
COc1cc(OC)cc(Oc2nc3ccc(C(F)(F)F)cc3nc2-c2ccccc2)c1,,,,,> 100 µM (inactive),
Cc1nc2ccc(F)cc2c2c1CCO2,,,,,> 100 µM (inactive),
CN(c1ccc(Cl)cc1)S(=O)(=O)c1ccc([N+](=O)[O-])cc1,,,,,> 100 µM (inactive),
CO[C@H]1C[C@H](O[C@H]2CC[C@@]3(C)[C@H](CC[C@@H]4[C@@H]3CC[C@]3(C)[C@@H](C5=CC(=O)OC5)CC[C@]43O)C2)O[C@H](C)[C@H]1O,,,,,< 0.01 µM (active),
O=C1N=CN=C2C=CC(Cl)=C(I)C12 (configuration not stated),73.8 µM (inactive),58.5 µM (inactive),> 100 µM (inactive),> 100 µM (inactive),,GI50 (XF498): 51.1 µM (inactive); GI50 (DMS-114): 84.7 µM (inactive)
NC(=S)NNC(=O)CCC(=O)Nc1ccc(Cl)cc1Cl,38.7 µM (inactive),> 100 µM (inactive),> 100 µM (inactive),> 100 µM (inactive),,GI50 (DMS-114): 41.7 µM (inactive); GI50 (RXF 631): > 100 µM (inactive)
COc1ccc(N2C(=O)C(Cl)C2c2cc3cc(Br)ccc3nc2Cl)cc1 (configuration not stated),,,,,11.5 µM (inactive),
CCCCCCCCCCCCOCCCOP(=O)([O-])OCC[N+](C)(C)C,12.9 µM (inactive),27.9 µM (inactive),28.2 µM (inactive),17 µM (inactive),22.4 µM (inactive),GI50 (XF498): 37.7 µM (inactive); GI50 (HOP-18): 32.7 µM (inactive)
COC(=O)[C@]1(C)CCC[C@@]2(C)C1CCC1=CC3(C(C)C)CCC12OO3 (some centres not stated),,50.1 µM (inactive),32.2 µM (inactive),94 µM (inactive),,GI50 (RXF 631): > 100 µM (inactive)
O=[N+]([O-])C1C2C=CC(C2)[C@H]1c1ccc(Cl)cc1Cl (some centres not stated),46.5 µM (inactive),20.3 µM (inactive),34.8 µM (inactive),,,GI50 (XF498): 43.7 µM (inactive)
O=C(CCc1cccc(O)c1)NCCCNC(=O)CCc1cccc(O)c1,,,,,> 100 µM (inactive),
CCCCCCCCC(C)C(=O)N1CCCC1C(=O)N1C(CC(=O)CC)CC(C)CC1C(=O)NC(C)C(=O)NC(C)(C)C(=O)NC(C)(C)C(=O)NC(C(=O)NC(C)C(=O)NC(C)(C)C(=O)NC(C)(C)C(=O)NC(C)CN(C)CCO)C(C)CC (configuration not stated) (X46-P[X47]A[Aib][Aib]IA[Aib][Aib]-X48; configuration not given here),,,,,0.168 µM (active),
NC(=O)c1cc([N+](=O)[O-])cc([N+](=O)[O-])c1 [NITROMIDE],> 100 µM (inactive),> 100 µM (inactive),22.4 µM (inactive),> 100 µM (inactive),,GI50 (DMS-114): 38.5 µM (inactive); GI50 (RXF 631): > 100 µM (inactive)
COc1cc(C/C=C/c2ccccc2)c(OC)cc1O [VIOLASTYRENE],,,,,30.8 µM (inactive),

# Source: ChEMBL document CHEMBL1201862, “PubChem BioAssay data set” (2004)
